According to US20260297098A1, “HETEROCYCLIC COMPOUNDS AS PARP1 INHIBITORS” (Synnovation Therapeutics, Inc., priority 2023, published 2026):

Target: T1, hydrogen peroxide-induced PARylation in HeLa cells (wide-type with PARP1 gene) (Homo sapiens, UniProt P09874)
T1 construct: H2O2-induced PARylation, In-Cell Western with anti-PAR antibody
Experiment: In-Cell Western measurement of PARylation in PARP1 WT (HeLa) cells
Type: cell-based
Settings: 60 min compound pre-treatment, 10 mM hydrogen peroxide for 15 min, read-out: HeLa_WT_IC50
Excerpt: Example A. In-Cell Western Measurement of PARylation in PARP1 WT and Knockout Cells
The purpose of this cell-based assay is to measure the potency and selectivity of synthesized PARP inhibitors in suppressing hydrogen peroxide-induced PARylation in cells with and without PARP1 expression. Several cell lines were used in this assay. HeLa cells (wide-type with PARP1 gene) were purchased from ATCC. The HAP1 cell line without the PARP1 gene (#HZGHC003943c006) was purchased from Horizon Discovery. Cells were cultured using complete medium containing 10% fetal bovine serum. One day before the assay, cells were seeded in 96-well plates at the density of 20,000 cells per well in 80 uL complete medium. Compounds were dissolved using DMSO and diluted to the working concentrations using complete medium. Cells were pre-treated with compounds for 60 min and then stimulated with 10 mM hydrogen peroxide for 15 min. After stimulation, cells were immediately fixed using ice-cold methanol for 20 min. After fixation, cells were washed using 1×PBST buffer for 3 times, 5 min each time, to eliminate residual methanol. Cells were blocked for 1 h at room temperature in blocking buffer (10% goat serum, 1% BSA, 0.1% Triton X-100 in PBST). Primary antibody was diluted in blocking buffer at 50 uL per well. Cells were incubated with the primary antibody (Adipogen, AG-20T-0001-M001, 1:300) at 4° C. for 18 h. The wells were then washed using 1×PBST for 3 times, 5 min each time. IRDye® 680RD Goat anti-Mouse IgG (H+L) secondary antibody was diluted at 1/1000 using the diluent buffer and added at 50 uL per well. Secondary antibody incubation was for 1 h at room temperature. Cells were then washed using 1×PBST for 3 times, 5 min each time. The signal was detected and analyzed using LI-COR Odyssey DLx Imaging system. Data were collected and further processed using GraphPad Prism for IC50 estimation.

T1 sequence (P09874 whole entry): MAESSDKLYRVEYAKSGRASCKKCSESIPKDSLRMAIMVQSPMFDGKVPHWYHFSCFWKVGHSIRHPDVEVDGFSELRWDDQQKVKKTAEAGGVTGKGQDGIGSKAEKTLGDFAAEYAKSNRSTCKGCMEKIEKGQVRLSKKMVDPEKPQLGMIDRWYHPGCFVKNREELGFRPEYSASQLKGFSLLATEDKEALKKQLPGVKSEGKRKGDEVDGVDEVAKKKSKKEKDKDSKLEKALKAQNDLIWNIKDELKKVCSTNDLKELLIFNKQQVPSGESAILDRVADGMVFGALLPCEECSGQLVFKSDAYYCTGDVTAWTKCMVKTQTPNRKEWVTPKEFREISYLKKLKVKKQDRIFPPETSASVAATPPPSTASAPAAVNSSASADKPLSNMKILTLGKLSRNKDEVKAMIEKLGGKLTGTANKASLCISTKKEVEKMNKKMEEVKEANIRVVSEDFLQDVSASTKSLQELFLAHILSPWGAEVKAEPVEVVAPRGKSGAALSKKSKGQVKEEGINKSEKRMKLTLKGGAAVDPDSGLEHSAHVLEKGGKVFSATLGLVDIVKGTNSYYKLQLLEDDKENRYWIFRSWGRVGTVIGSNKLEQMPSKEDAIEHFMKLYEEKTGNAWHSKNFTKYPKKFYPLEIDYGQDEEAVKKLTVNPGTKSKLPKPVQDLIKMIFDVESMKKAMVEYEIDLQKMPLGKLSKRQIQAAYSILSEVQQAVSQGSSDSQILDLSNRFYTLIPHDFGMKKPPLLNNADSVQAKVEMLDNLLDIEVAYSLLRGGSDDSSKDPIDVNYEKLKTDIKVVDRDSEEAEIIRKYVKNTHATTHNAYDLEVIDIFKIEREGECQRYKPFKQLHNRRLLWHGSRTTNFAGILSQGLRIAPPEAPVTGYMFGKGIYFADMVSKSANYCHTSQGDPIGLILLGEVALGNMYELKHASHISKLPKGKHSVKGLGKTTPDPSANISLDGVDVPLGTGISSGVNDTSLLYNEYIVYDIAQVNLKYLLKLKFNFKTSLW

SMILES	IC50
CCN1C(=O)Nc2cc(CN3CC(Oc4ccc(C(=O)NC)nc4C)C3)cc3ncnc1c23 [Example 9, 5-((1-((3-Ethyl-2-oxo-2,3-dihydro-1H-pyrimido[4,5,6-de]quinazolin-8-yl)methyl)azetidin-3-yl)oxy)-N,6-dimethylpicolinamide]	≤ 10 nM
CCN1C(=O)Nc2c(F)c(CN3C[C@H](Oc4ccc(C(=O)NC)nc4)[C@H]3C)cc3ncnc1c23 [Example 2, 5-(((2R,3S)-1-((3-ethyl-9-fluoro-2-oxo-2,3-dihydro-1H-pyrimido[4,5,6-de]quinazolin-8-yl)methyl)-2-methylazetidin-3-yl)oxy)-N-methylpicolinamide]	≤ 10 nM
CCN1C(=O)Nc2cc(CN3C[C@H](Oc4ccc(C(=O)NC)nc4)[C@H]3C)cc3ncnc1c23 [Example 4, 5-(((2R,3S)-1-((3-ethyl-2-oxo-2,3-dihydro-1H-pyrimido[4,5,6-de]quinazolin-8-yl)methyl)-2-methylazetidin-3-yl)oxy)-N-methylpicolinamide]	≤ 10 nM
CCN1C(=O)Nc2c(F)c(CN3C[C@H](Oc4ccc(C(=O)NC5CC5)nc4)[C@H]3C)cc3ncnc1c23 [Example 8, N-cyclopropyl-5-(((2R,3S)-1-((3-ethyl-9-fluoro-2-oxo-2,3-dihydro-1H-pyrimido[4,5,6-de]quinazolin-8-yl)methyl)-2-methylazetidin-3-yl)oxy)picolinamide]	≤ 10 nM
CCN1C(=O)Nc2cc(CN3C[C@H](Oc4ccc(C(=O)NC5CC5)nc4)[C@H]3C)cc3ncnc1c23 [Example 6, N-cyclopropyl-5-(((2R,3S)-1-((3-ethyl-2-oxo-2,3-dihydro-1H-pyrimido[4,5,6-de]quinazolin-8-yl)methyl)-2-methylazetidin-3-yl)oxy)picolinamide]	≤ 10 nM
CCN1C(=O)Nc2cc(CN3CC(Oc4ccc(C(=O)NC)nc4)C3)cc3ncnc1c23 [Example 3, 5-((1-((3-Ethyl-2-oxo-2,3-dihydro-1H-pyrimido[4,5,6-de]quinazolin-8-yl)methyl)azetidin-3-yl)oxy)-N-methylpicolinamide]	≤ 10 nM
CCN1C(=O)Nc2cc(CN3CC(Oc4ccc(C(=O)NC5CC5)nc4)C3)cc3ncnc1c23 [Example 5, N-cyclopropyl-5-((1-((3-ethyl-2-oxo-2,3-dihydro-1H-pyrimido[4,5,6-de]quinazolin-8-yl)methyl)azetidin-3-yl)oxy)picolinamide]	≤ 10 nM
CCN1C(=O)Nc2cc(CN3C[C@H](Oc4ccc(C(=O)NC)nc4C)[C@H]3C)cc3ncnc1c23 [Example 10, 5-(((2R,3S)-1-((3-ethyl-2-oxo-2,3-dihydro-1H-pyrimido[4,5,6-de]quinazolin-8-yl)methyl)-2-methylazetidin-3-yl)oxy)-N,6-dimethylpicolinamide]	≤ 10 nM
CCN1C(=O)Nc2c(F)c(CN3CC(Oc4ccc(C(=O)NC5CC5)nc4)C3)cc3ncnc1c23 [Example 7, N-cyclopropyl-5-((1-((3-ethyl-9-fluoro-2-oxo-2,3-dihydro-1H-pyrimido[4,5,6-de]quinazolin-8-yl)methyl)azetidin-3-yl)oxy)picolinamide]	≤ 10 nM
CCN1C(=O)Nc2c(F)c(CN3CC(Oc4ccc(C(=O)NC)nc4)C3)cc3ncnc1c23 [Example 1, 5-((1-((3-Ethyl-9-fluoro-2-oxo-2,3-dihydro-1H-pyrimido[4,5,6-de]quinazolin-8-yl)methyl)azetidin-3-yl)oxy)-N-methylpicolinamide]	≤ 10 nM
